Reference: patent US20260262643A1, “HERBICIDAL BENZOXAZINES” (FMC CORPORATION, priority 2022, published 2026)

Tests used:
ducksalad = assay: Test D flooded paddy test; type: in vivo, Heteranthera limosa; conditions: 250 g ai/ha, applied to paddy water, visual rating after 13 to 14 days, scale 0 to 100 (0 no effect, 100 complete control)
Procedure, shortened: (§1)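 Plants grown to the 2-leaf stage; pots flooded to 3 cm above soil at treatment and held at that depth throughout. Test compounds applied directly to the paddy water. After 13 to 14 days in a greenhouse, response was rated visually versus controls on a 0 (no effect) to 100 (complete control) scale.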

barnyardgrass [1] = assay: Test C preemergence; type: in vivo, Echinochloa crusgalli; conditions: 0 to 100 scale (0 no effect, 100 complete control); for Plant response rating, Barnyardgrass: Preemergence, 500 g ai/ha, visual rating after 10 days; for Barnyardgrass plant response rating: Test C, preemergence, 125 g ai/ha
Procedure, shortened: (§2)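 Seeds in loam–sand blend received preemergence directed soil spray of test chemicals in non-phytotoxic solvent with surfactant; postemergence treatment was applied at one- to two-leaf stage (2–10 cm). After 10 days in greenhouse, injury rated visually versus untreated controls, 0 (no effect) to 100 (complete control).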

barnyardgrass [2] = assay: Test C postemergence; type: in vivo, Echinochloa crusgalli; conditions: 10 days
Procedure, shortened: as §2

barnyardgrass [3] = assay: Test D flooded paddy test; type: in vivo, Echinochloa crus-galli; conditions: 250 g ai/ha, applied to paddy water, visual rating after 13 to 14 days, scale 0 to 100 (0 no effect, 100 complete control)
Procedure, shortened: as §1

wheat [4] = assay: Test C postemergence; type: in vivo, Triticum aestivum; conditions: 10 days
Procedure, shortened: as §2

ragweed [5] = assay: Test C preemergence; type: in vivo, Ambrosia artemisiifolia; conditions: 0 to 100 scale (0 no effect, 100 complete control); for Plant response rating, Ragweed: Preemergence, 500 g ai/ha, visual rating after 10 days; for Ragweed plant response rating: Test C, preemergence, 125 g ai/ha
Procedure, shortened: as §2

ragweed [6] = assay: Test C postemergence; type: in vivo, Ambrosia artemisiifolia; conditions: 10 days
Procedure, shortened: as §2

kochia [7] = assay: Test C preemergence; type: in vivo, Bassia scoparia; conditions: 0 to 100 scale (0 no effect, 100 complete control); for Plant response rating, Kochia: Preemergence, 500 g ai/ha, visual rating after 10 days; for Kochia plant response rating: Test C, preemergence, 125 g ai/ha
Procedure, shortened: as §2

pigweed, palmer [8] = assay: Test C postemergence; type: in vivo, Amaranthus palmeri; conditions: 10 days
Procedure, shortened: as §2

sedge, umbrella = assay: Test D flooded paddy test; type: in vivo, Cyperus difformis; conditions: 250 g ai/ha, applied to paddy water, visual rating after 13 to 14 days, scale 0 to 100 (0 no effect, 100 complete control)
Procedure, shortened: as §1

oat, wild [9] = assay: Test C preemergence; type: in vivo, Avena fatua; conditions: 0 to 100 scale (0 no effect, 100 complete control); for Plant response rating, Oat, Wild: Preemergence, 500 g ai/ha, visual rating after 10 days; for Oat, Wild plant response rating: Test C, preemergence, 125 g ai/ha
Procedure, shortened: as §2

soybean [10] = assay: Test C postemergence; type: in vivo, Glycine max; conditions: 10 days
Procedure, shortened: as §2

corn [11] = assay: Test C preemergence; type: in vivo, Zea mays; conditions: 0 to 100 scale (0 no effect, 100 complete control); for Plant response rating, Corn: Preemergence, 500 g ai/ha, visual rating after 10 days; for Corn plant response rating: Test C, preemergence, 125 g ai/ha
Procedure, shortened: as §2

green foxtail [12] = assay: Test C preemergence; type: in vivo, Setaria viridis; conditions: 0 to 100 scale (0 no effect, 100 complete control); for Plant response rating, Foxtail, Green: Preemergence, 500 g ai/ha, visual rating after 10 days; for Foxtail, Green plant response rating: Test C, preemergence, 125 g ai/ha
Procedure, shortened: as §2

oat, wild [13] = assay: Test C postemergence; type: in vivo, Avena fatua; conditions: 10 days
Procedure, shortened: as §2

ryegrass, Italian [14] = assay: Test C preemergence; type: in vivo, Lolium multiflorum; conditions: 0 to 100 scale (0 no effect, 100 complete control); for Plant response rating, Ryegrass, Italian: Preemergence, 500 g ai/ha, visual rating after 10 days; for Ryegrass, Italian plant response rating: Test C, preemergence, 125 g ai/ha
Procedure, shortened: as §2

galium = assay: Test C postemergence; type: in vivo, Galium aparine; conditions: 10 days
Procedure, shortened: as §2

horseweed = assay: Test C postemergence; type: in vivo, Erigeron canadensis; conditions: 10 days
Procedure, shortened: as §2

ryegrass, Italian [15] = assay: Test C postemergence; type: in vivo, Lolium multiflorum; conditions: 10 days
Procedure, shortened: as §2

corn [16] = assay: Test C postemergence; type: in vivo, Zea mays; conditions: 10 days
Procedure, shortened: as §2

blackgrass [17] = assay: Test C preemergence; type: in vivo, Alopecurus myosuroides; conditions: 0 to 100 scale (0 no effect, 100 complete control); for Plant response rating, Blackgrass: Preemergence, 500 g ai/ha, visual rating after 10 days; for Blackgrass plant response rating: Test C, preemergence, 125 g ai/ha
Procedure, shortened: as §2

pigweed, palmer [18] = assay: Test C preemergence; type: in vivo, Amaranthus palmeri; conditions: 0 to 100 scale (0 no effect, 100 complete control); for Plant response rating, Pigweed, Palmer: Preemergence, 500 g ai/ha, visual rating after 10 days; for Pigweed, Palmer plant response rating: Test C, preemergence, 125 g ai/ha
Procedure, shortened: as §2

rice = assay: Test D flooded paddy test; type: in vivo, Oryza sativa; conditions: 250 g ai/ha, applied to paddy water, visual rating after 13 to 14 days, scale 0 to 100 (0 no effect, 100 complete control)
Procedure, shortened: as §1

wheat [19] = assay: Test C preemergence; type: in vivo, Triticum aestivum; conditions: 0 to 100 scale (0 no effect, 100 complete control); for Plant response rating, Wheat: Preemergence, 500 g ai/ha, visual rating after 10 days; for Wheat plant response rating: Test C, preemergence, 125 g ai/ha
Procedure, shortened: as §2

green foxtail [20] = assay: Test C postemergence; type: in vivo, Setaria viridis; conditions: 10 days
Procedure, shortened: as §2

kochia [21] = assay: Test C postemergence; type: in vivo, Bassia scoparia; conditions: 10 days
Procedure, shortened: as §2

soybean [22] = assay: Test C preemergence; type: in vivo, Glycine max; conditions: 0 to 100 scale (0 no effect, 100 complete control); for Plant response rating, Soybean: Preemergence, 500 g ai/ha, visual rating after 10 days; for Soybean plant response rating: Test C, preemergence, 125 g ai/ha
Procedure, shortened: as §2

blackgrass [23] = assay: Test C postemergence; type: in vivo, Alopecurus myosuroides; conditions: 10 days
Procedure, shortened: as §2

[24] = 125 g ai/ha, postemergence, 0 to 100 scale, 0 no effect, 100 complete control
[25] = Postemergence, 500 g ai/ha, visual 0 to 100 scale (0 no effect, 100 complete control)

Cc1cc(-n2cnc(C(C)C)n2)cc(C(=O)N2C[C@H](C)Oc3c(Cl)cccc32)c1C [Compound 259]
30: Barnyardgrass plant response rating (barnyardgrass [1]) | Ragweed plant response rating (ragweed [5]) | Plant response rating, Corn (corn [11]) | Corn plant response rating (corn [11]) | Plant response rating, Oat, Wild (oat, wild [13]; [24]) | Plant response rating, Oat, Wild (oat, wild [13]; [25]) | Plant response rating, Ryegrass, Italian (ryegrass, Italian [15]; [24]) | Plant response rating, Corn (corn [16]; [25])
100: Plant response rating, Kochia (kochia [7]) | Plant response rating, Soybean (soybean [10]; [24]) | Plant response rating, Soybean (soybean [10]; [25]) | Plant response rating, Foxtail, Green (green foxtail [12]) | Foxtail, Green plant response rating (green foxtail [12]) | Plant response rating, Ryegrass, Italian (ryegrass, Italian [14]) | Plant response rating, Galium (galium; [24]) | Plant response rating, Galium (galium; [25]) | Plant response rating, Pigweed, Palmer (pigweed, palmer [18]) | Pigweed, Palmer plant response rating (pigweed, palmer [18]) | Plant response rating, Soybean (soybean [22])
20: Plant response rating, Barnyardgrass (barnyardgrass [2]; [24]) | Plant response rating, Wheat (wheat [4]; [24]) | Plant response rating, Wheat (wheat [4]; [25]) | Plant response rating, Ragweed (ragweed [6]; [24]) | Soybean plant response rating (soybean [22])
40: Plant response rating, Foxtail, Green (green foxtail [20]; [24])
90: Plant response rating, Barnyardgrass (barnyardgrass [1]) | Kochia plant response rating (kochia [7]) | Plant response rating, Pigweed, Palmer (pigweed, palmer [8]; [24]) | Plant response rating, Pigweed, Palmer (pigweed, palmer [8]; [25]) | Plant response rating, Oat, Wild (oat, wild [9]) | Ryegrass, Italian plant response rating (ryegrass, Italian [14]) | Plant response rating, Wheat (wheat [19]) | Plant response rating, Foxtail, Green (green foxtail [20]; [25])
50: Plant response rating, Ragweed (ragweed [6]; [25]) | Plant response rating, Ryegrass, Italian (ryegrass, Italian [15]; [25]) | Blackgrass plant response rating (blackgrass [17]) | Wheat plant response rating (wheat [19])
10: Plant response rating, Corn (corn [16]; [24])
0: Plant response rating, Ducksalad (Flood) (ducksalad) | Plant response rating, Barnyardgrass (Flood) (barnyardgrass [3]) | Plant response rating, Ragweed (ragweed [5]) | Plant response rating, Sedge, Umbrella (Flood) (sedge, umbrella) | Plant response rating, Horseweed (horseweed; [24]) | Plant response rating, Horseweed (horseweed; [25]) | Plant response rating, Rice (Flood) (rice)
80: Plant response rating, Kochia (kochia [21]; [25]) | Plant response rating, Blackgrass (blackgrass [23]; [25])
70: Plant response rating, Barnyardgrass (barnyardgrass [2]; [25]) | Plant response rating, Blackgrass (blackgrass [17]) | Plant response rating, Kochia (kochia [21]; [24]) | Plant response rating, Blackgrass (blackgrass [23]; [24])
60: Oat, Wild plant response rating (oat, wild [9])

COc1c(F)cc(-n2cnc(C(C)C)n2)cc1C(=O)N1C[C@H](C)Oc2c(Cl)cccc21 [Compound 177]
70: Plant response rating, Barnyardgrass (barnyardgrass [2]; [25]) | Plant response rating, Ragweed (ragweed [6]; [25])
35: Plant response rating, Barnyardgrass (Flood) (barnyardgrass [3])
60: Plant response rating, Oat, Wild (oat, wild [13]; [24]) | Plant response rating, Corn (corn [16]; [25]) | Plant response rating, Blackgrass (blackgrass [17]) | Plant response rating, Wheat (wheat [19]) | Soybean plant response rating (soybean [22])
95: Plant response rating, Sedge, Umbrella (Flood) (sedge, umbrella)
30: Plant response rating, Barnyardgrass (barnyardgrass [2]; [24]) | Plant response rating, Wheat (wheat [4]; [24]) | Plant response rating, Corn (corn [11]) | Corn plant response rating (corn [11]) | Plant response rating, Horseweed (horseweed; [24]) | Wheat plant response rating (wheat [19])
100: Plant response rating, Barnyardgrass (barnyardgrass [1]) | Barnyardgrass plant response rating (barnyardgrass [1]) | Plant response rating, Kochia (kochia [7]) | Plant response rating, Pigweed, Palmer (pigweed, palmer [8]; [25]) | Plant response rating, Soybean (soybean [10]; [24]) | Plant response rating, Soybean (soybean [10]; [25]) | Plant response rating, Foxtail, Green (green foxtail [12]) | Foxtail, Green plant response rating (green foxtail [12]) | Plant response rating, Ryegrass, Italian (ryegrass, Italian [14]) | Ryegrass, Italian plant response rating (ryegrass, Italian [14]) | Plant response rating, Galium (galium; [25]) | Plant response rating, Pigweed, Palmer (pigweed, palmer [18]) | Pigweed, Palmer plant response rating (pigweed, palmer [18]) | Plant response rating, Kochia (kochia [21]; [25])
0: Plant response rating, Rice (Flood) (rice)
40: Plant response rating, Corn (corn [16]; [24]) | Blackgrass plant response rating (blackgrass [17])
80: Plant response rating, Ragweed (ragweed [6]; [24]) | Kochia plant response rating (kochia [7]) | Oat, Wild plant response rating (oat, wild [9]) | Plant response rating, Oat, Wild (oat, wild [13]; [25]) | Plant response rating, Horseweed (horseweed; [25]) | Plant response rating, Ryegrass, Italian (ryegrass, Italian [15]; [24])
50: Plant response rating, Ducksalad (Flood) (ducksalad) | Plant response rating, Wheat (wheat [4]; [25])
90: Plant response rating, Ragweed (ragweed [5]) | Ragweed plant response rating (ragweed [5]) | Plant response rating, Pigweed, Palmer (pigweed, palmer [8]; [24]) | Plant response rating, Oat, Wild (oat, wild [9]) | Plant response rating, Galium (galium; [24]) | Plant response rating, Ryegrass, Italian (ryegrass, Italian [15]; [25]) | Plant response rating, Foxtail, Green (green foxtail [20]; [24]) | Plant response rating, Foxtail, Green (green foxtail [20]; [25]) | Plant response rating, Kochia (kochia [21]; [24]) | Plant response rating, Soybean (soybean [22]) | Plant response rating, Blackgrass (blackgrass [23]; [24]) | Plant response rating, Blackgrass (blackgrass [23]; [25])
